According to US9340580B2, “Peptide with multiple epitopes” (priority 2007, dated 2016):
“And” between values parts separate entries of the source, which are not always exact repeats. Equal entries are not always repeated. Where a SMILES comes first, the peptide text is derived from it.

Tests used:
[1] = solubility pre-screen in an aqueous, acidic milieu; type: physicochemical
[2] = precipitation in the aqueous solution of the binding assay; type: physicochemical; details: aqueous solution of the MHC class II binding assay, read-out: Precipitation in assay: lowest concentration at which an insoluble white precipitate is seen
Description: This is a characteristic of promiscuous HLA-DRB1* binders.

Row | SMILES | Solubility test [1] | solubility [2]
1 | CC[C@H](C)[C@H](NC(=O)[C@H](CCC(=O)O)NC(=O)[C@@H](NC(=O)[C@H](CCCCN)NC(=O)[C@H](C)N)[C@@H](C)CC)C(=O)N[C@@H](CCCCN)C(=O)N[C@@H](C)C(=O)N[C@@H](CO)C(=O)N[C@@H](CC(C)C)C(=O)N[C@@H](CC(=O)O)C(=O)NCC(=O)N[C@@H](CC(C)C)C(=O)N[C@@H](CCC(=O)O)C(=O)O [HDM27] (H-AKIEIKASLDGLE-OH) | YES | 1000 µM and 1400 µg/mL
2 | CC[C@H](C)[C@H](NC(=O)[C@@H](NC(=O)[C@H](C)NC(=O)[C@@H](NC(=O)[C@H](C)NC(=O)[C@H](CO)NC(=O)[C@H](Cc1c[nH]cn1)NC(=O)[C@@H](NC(=O)[C@H](CCC(N)=O)NC(=O)[C@H](C)NC(=O)[C@H](CC(C)C)NC(=O)[C@H](C)NC(=O)[C@H](CCC(=O)O)NC(=O)[C@@H](N)CCCNC(=N)N)[C@@H](C)O)[C@@H](C)CC)C(C)C)C(=O)O [HDM09A] (H-REALAQTHSAIAVI-OH; N-terminus and C-terminus assumed) | YES | 1000 µM and 2900 µg/mL
3 | CC[C@H](C)[C@H](NC(=O)[C@H](C)NC(=O)[C@@H](N)[C@@H](C)O)C(=O)N[C@@H](Cc1ccccc1)C(=O)N[C@@H](CCC(N)=O)C(=O)N[C@@H](CC(=O)O)C(=O)N[C@H](C(=O)N[C@H](C(=O)N[C@@H](CCCNC(=N)N)C(=O)N[C@@H](C)C(=O)N[C@@H](CCC(=O)O)C(=O)N[C@@H](CCSC)C(=O)N[C@H](C(=O)N[C@@H](CCCCN)C(=O)O)[C@@H](C)O)C(C)C)[C@@H](C)O [HDM48] (H-TAIFQDTVRAEMTK-OH; N-terminus and C-terminus assumed) | YES | 1000 µM and 1600 µg/mL
4 | CC[C@H](C)[C@H](NC(=O)CNC(=O)[C@@H](NC(=O)[C@@H](N)Cc1c[nH]cn1)[C@@H](C)CC)C(=O)N[C@H](C(=O)N[C@@H](CC(=O)O)C(=O)N[C@@H](CC(C)C)C(=O)N[C@@H](CCCCN)C(=O)NCC(=O)N[C@@H](CCC(=O)O)C(=O)N[C@@H](CC(C)C)C(=O)N[C@@H](CC(=O)O)C(=O)N[C@@H](CCSC)C(=O)N[C@@H](CCCNC(=N)N)C(=O)N[C@@H](CC(N)=O)C(=O)O)[C@@H](C)CC [HDM31A] (H-HIGIIDLKGELDMRN-OH) | YES | 1000 µM and 1700 µg/mL
5 | CC(C)C[C@H](NC(=O)[C@H](CCC(N)=O)NC(=O)[C@H](Cc1ccccc1)NC(=O)[C@@H]1CCCN1C(=O)[C@@H](N)CCCCN)C(=O)N[C@@H](CCC(=O)O)C(=O)N[C@@H](C)C(=O)N[C@H](C(=O)N[C@@H](Cc1ccccc1)C(=O)N[C@@H](CCC(=O)O)C(=O)N[C@@H](C)C(=O)N[C@@H](CC(N)=O)C(=O)N[C@@H](CCC(N)=O)C(=O)N[C@@H](CC(N)=O)C(=O)N[C@H](C(=O)N[C@@H](CCCCN)C(=O)O)[C@@H](C)O)C(C)C [HDM21A] (H-KPFQLEAVFEANQNTK-OH; N-terminus and C-terminus assumed) | YES | 5000 µM and 9300 µg/mL
6 | CSCC[C@H](NC(=O)[C@@H]1CCCN1C(=O)[C@H](CC(=O)O)NC(=O)[C@H](Cc1ccccc1)NC(=O)[C@@H](NC(=O)[C@H](CCC(=O)O)NC(=O)[C@H](CO)NC(=O)[C@@H](N)CCCCN)[C@@H](C)O)C(=O)N[C@@H](CCCCN)C(=O)N[C@H](C(=O)N1CCC[C@H]1C(=O)N[C@@H](CC(=O)O)C(=O)N[C@@H](Cc1c[nH]cn1)C(=O)N[C@@H](CO)C(=O)N[C@@H](CC(=O)O)C(=O)O)C(C)C [HDM29B] (H-KSETFDPMKVPDHSD-OH) | YES | 1000 µM and 1700 µg/mL
7 | CC[C@H](C)[C@H](NC(=O)CNC(=O)[C@@H](NC(=O)[C@H](Cc1c[nH]cn1)NC(=O)[C@H](CCCNC(=N)N)NC(=O)[C@H](CCC(=O)O)NC(=O)[C@H](Cc1ccccc1)NC(=O)[C@H](CCCCN)NC(=O)[C@@H](N)CC(=O)O)[C@@H](C)CC)C(=O)N[C@H](C(=O)N[C@@H](CC(=O)O)C(=O)N[C@@H](CC(C)C)C(=O)N[C@@H](CCCCN)C(=O)O)[C@@H](C)CC [HDM30] (H-DKFERHIGIIDLK-OH; N-terminus and C-terminus assumed) | YES | 5000 µM and 7900 µg/mL
8 | CC(C)C[C@H](NC(=O)[C@H](CCC(N)=O)NC(=O)[C@H](Cc1ccccc1)NC(=O)[C@@H]1CCCN1C(=O)[C@H](CCCCN)NC(=O)CNC(=O)[C@@H](N)CCCNC(=N)N)C(=O)N[C@@H](CCC(=O)O)C(=O)N[C@@H](C)C(=O)N[C@H](C(=O)N[C@@H](Cc1ccccc1)C(=O)N[C@@H](CCC(=O)O)C(=O)N[C@@H](C)C(=O)N[C@@H](CC(N)=O)C(=O)N[C@@H](CCC(N)=O)C(=O)N[C@@H](CC(N)=O)C(=O)N[C@H](C(=O)O)[C@@H](C)O)C(C)C [HDM21B] (H-RGKPFQLEAVFEANQNT-OH; N-terminus and C-terminus assumed) | YES | 1000 µM and 1980 µg/mL
9 | CC[C@H](C)[C@H](NC(=O)[C@H](C)NC(=O)[C@H](CS)NC(=O)[C@H](C)NC(=O)[C@H](CC(C)C)NC(=O)[C@@H](NC(=O)CNC(=O)[C@@H](N)CC(=O)O)C(C)C)C(=O)N[C@@H](C)C(=O)N[C@H](C(=O)N[C@@H](Cc1c[nH]cn1)C(=O)N[C@@H](C)C(=O)N[C@@H](CCCCN)C(=O)N[C@H](C(=O)N[C@@H](CCCNC(=N)N)C(=O)O)[C@@H](C)CC)[C@@H](C)O [HDM26A] (H-DGVLACAIATHAKIR-OH; N-terminus and C-terminus assumed) | – | 1000 µM and 1500 µg/mL
10 | CC[C@H](C)[C@H](N)C(=O)NCC(=O)N[C@H](C(=O)N[C@H](C(=O)N[C@@H](CC(=O)O)C(=O)N[C@@H](CC(C)C)C(=O)N[C@@H](CCCCN)C(=O)NCC(=O)N[C@@H](CCC(=O)O)C(=O)N[C@@H](CC(C)C)C(=O)N[C@@H](CC(=O)O)C(=O)N[C@@H](CCSC)C(=O)N[C@@H](CCCNC(=N)N)C(=O)N[C@@H](CC(N)=O)C(=O)O)[C@@H](C)CC)[C@@H](C)CC [HDM31] (H-IGIIDLKGELDMRN-OH) | – | 1000 µM and 1800 µg/mL
11 | CSCC[C@H](NC(=O)[C@H](CO)NC(=O)[C@@H](NC(=O)[C@@H](NC(=O)[C@H](CC(=O)O)NC(=O)[C@@H](N)CC(=O)O)C(C)C)C(C)C)C(=O)N[C@@H](CCC(=O)O)C(=O)N[C@@H](Cc1ccc(O)cc1)C(=O)N[C@@H](CC(=O)O)C(=O)N[C@@H](CC(C)C)C(=O)N[C@@H](C)C(=O)N[C@@H](Cc1ccc(O)cc1)C(=O)N[C@@H](CCCCN)C(=O)O [HDM39] (H-DDVVSMEYDLAYK-OH; N-terminus and C-terminus assumed) | NO* | –
12 | CC(C)C[C@H](NC(=O)[C@H](CC(=O)O)NC(=O)[C@@H](N)CCCCN)C(=O)N[C@@H](CC(=O)O)C(=O)N[C@@H](C)C(=O)N[C@@H](Cc1ccccc1)C(=O)N[C@@H](CCCNC(=N)N)C(=O)N[C@@H](Cc1c[nH]cn1)C(=O)N[C@@H](Cc1ccc(O)cc1)C(=O)N[C@@H](CC(=O)O)C(=O)NCC(=O)N[C@@H](CCCNC(=N)N)C(=O)N[C@H](C(=O)O)[C@@H](C)O [HDM12] (H-KDLDAFRHYDGRT-OH) | YES | –
13 | CC[C@H](C)[C@H](N)C(=O)NCC(=O)N[C@H](C(=O)N[C@@H](CCCCN)C(=O)N[C@@H](CC(=O)O)C(=O)N[C@@H](CC(C)C)C(=O)N[C@@H](CC(=O)O)C(=O)N[C@@H](C)C(=O)N[C@@H](Cc1ccccc1)C(=O)N[C@@H](CCCNC(=N)N)C(=O)N[C@@H](Cc1c[nH]cn1)C(=O)N[C@@H](Cc1ccc(O)cc1)C(=O)N[C@@H](CC(=O)O)C(=O)O)[C@@H](C)CC [HDM11] (H-IGIKDLDAFRHYD-OH) | YES | –
